Experimental data taken from PubChem BioAssay (NCI).
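Values below derive from 48-hour exposures of cells grown in 96-well plates, with endpoints linearly interpolated between the two concentrations bracketing the appropriate inhibition level. Abbreviation: GI50, concentration required for 50% inhibition of growth. TGI: total growth inhibition.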

Tests used:
Assay in all cases: inhibition of tumour cell growth, NCI panel, 48 h
[1] = tested on: HL-60(TB) leukemia
[2] = tested on: SK-MEL-28 melanoma
[3] = tested on: PC-3 prostate
[4] = tested on: OVCAR-8 ovarian
[5] = tested on: U251 CNS
[6] = tested on: OVCAR-4 ovarian
[7] = tested on: MOLT-4 leukemia
[8] = tested on: MCF7 breast
[9] = tested on: A549 NSCLC
[10] = tested on: LOX IMVI melanoma
[11] = tested on: OVCAR-3 ovarian
[12] = tested on: NCI-H522 lung
[13] = tested on: M14 melanoma
[14] = tested on: MALME-3M melanoma
[15] = tested on: SNB-19 CNS
[16] = tested on: HS 578T breast
[17] = tested on: SR leukemia
[18] = tested on: RPMI-8226 leukemia
[19] = tested on: K-562 leukemia
[20] = tested on: HOP-62 NSCLC
[21] = tested on: SK-MEL-2 melanoma
[22] = tested on: TK-10 renal
[23] = tested on: KM12 colon
[24] = tested on: NCI/ADR-RES ovarian
[25] = tested on: COLO 205 colon
[26] = tested on: HCT-116 colon
[27] = tested on: SK-OV-3 ovarian
[28] = tested on: SW-620 colon
[29] = tested on: SF-268 CNS
[30] = tested on: UACC-257 melanoma
[31] = tested on: OVCAR-5 ovarian
[32] = tested on: A498 renal
[33] = tested on: HT29 colon
[34] = tested on: SNB-75 CNS
[35] = tested on: 786-0 renal
[36] = tested on: MDA-MB-435
[37] = tested on: DU-145 prostate
[38] = tested on: EKVX NSCLC
[39] = tested on: ACHN renal
[40] = tested on: CAKI-1 renal
[41] = tested on: BT-549 breast
[42] = tested on: UACC-62 melanoma
[43] = tested on: NCI-H226 lung
[44] = tested on: HCT-15 colon
[45] = tested on: SF-539 CNS
[46] = tested on: NCI-H460 lung
[47] = tested on: HCC-2998 colon
[48] = tested on: MDA-MB-231 breast
[49] = tested on: T-47D breast
[50] = tested on: RXF 393 renal
[51] = tested on: SF-295 CNS
[52] = tested on: UO-31 renal
[53] = tested on: IGROV1 ovarian
[54] = tested on: SN12C renal
[55] = tested on: SK-MEL-5 melanoma
[56] = tested on: CCRF-CEM leukemia
[57] = tested on: NCI-H23 lung
[58] = tested on: HOP-92 NSCLC

## O=C(C[C@@H](C(=O)NCc1cccc(C(F)(F)F)c1)N1C(=O)[C@@H](N2C(=O)OC[C@@H]2c2ccccc2)[C@H]1/C=C/c1ccccc1)NC1CCN(Cc2ccccc2)CC1
[1]
  GI50: 10.4 µM
  TGI: 33.8 µM
[2]
  GI50: 2.19 µM
  TGI: 5.8 µM
[3]
  GI50: 6.06 µM
  TGI: 20.8 µM
[4]
  GI50: 3.08 µM
[5]
  GI50: 4.58 µM
  TGI: 17.2 µM
[6]
  GI50: 1.77 µM
  TGI: 4.43 µM
[7]
  GI50: 1.59 µM
  TGI: 6.79 µM
[8]
  GI50: 1.61 µM
  TGI: 3.51 µM
[9]
  GI50: 5.86 µM
  TGI: 21.4 µM
[10]
  GI50: 4.03 µM
  TGI: 18.9 µM
[11]
  GI50: 10.4 µM
  TGI: 25.1 µM
[12]
  GI50: 2.81 µM
  TGI: 13.2 µM
[13]
  GI50: 4.58 µM
  TGI: 20.4 µM
[14]
  GI50: 2.78 µM
  TGI: 7.39 µM
[15]
  GI50: 9.33 µM
  TGI: 36.5 µM
[16]
  GI50: 10.3 µM
  TGI: 29.6 µM
[17]
  GI50: 1.89 µM
  TGI: 5.43 µM
[18]
  GI50: 2.22 µM
  TGI: 5.31 µM
[19]
  GI50: 1.77 µM
  TGI: 4.17 µM
[20]
  GI50: 14.5 µM
  TGI: 27.7 µM
[21]
  GI50: 14.1 µM
  TGI: 30.6 µM
[22]
  GI50: 10.2 µM
  TGI: 23.4 µM
[23]
  GI50: 3.93 µM
  TGI: 16.7 µM
[24]
  GI50: > 100 µM
  TGI: > 100 µM
[25]
  GI50: 2.48 µM
  TGI: 7.12 µM
[26]
  GI50: 1.95 µM
  TGI: 4.04 µM
[27]
  GI50: 15.3 µM
  TGI: 28.6 µM
[28]
  GI50: 3.91 µM
  TGI: 17.3 µM
[29]
  GI50: 3.81 µM
  TGI: 21.4 µM
[30]
  GI50: 17.2 µM
  TGI: 33.8 µM
[31]
  GI50: 13 µM
  TGI: 29.9 µM
[32]
  GI50: 2.19 µM
  TGI: 11.9 µM
[33]
  GI50: 1.67 µM
  TGI: 3.53 µM
[34]
  GI50: 6.21 µM
  TGI: 23 µM
[35]
  GI50: 6.51 µM
  TGI: 22.6 µM
[36]
  GI50: 2.45 µM
  TGI: 7.66 µM
[37]
  GI50: 7.72 µM
  TGI: > 100 µM
[38]
  GI50: 15.1 µM
  TGI: 41.7 µM
[39]
  GI50: 31.2 µM
  TGI: > 100 µM
[40]
  GI50: 14 µM
  TGI: 34.4 µM
[41]
  GI50: 2.96 µM
  TGI: 8.81 µM
[42]
  GI50: 3.34 µM
  TGI: 13.8 µM
[43]
  GI50: 48.2 µM
  TGI: > 100 µM
[44]
  GI50: 10.9 µM
  TGI: 35.2 µM
[45]
  GI50: 2.03 µM
  TGI: 3.98 µM
[46]
  GI50: 6.58 µM
  TGI: 21.8 µM
[47]
  GI50: 6.2 µM
  TGI: 21.2 µM
[48]
  GI50: 4.02 µM
  TGI: 20 µM
[49]
  GI50: 15.7 µM
  TGI: 38.9 µM
[50]
  GI50: 1.87 µM
  TGI: 4.88 µM
[51]
  GI50: 15.6 µM
  TGI: 30.8 µM
[52]
  GI50: 13.5 µM
  TGI: 55.3 µM
[53]
  GI50: 13.3 µM
  TGI: 32.4 µM
[54]
  GI50: 9.46 µM
  TGI: 30.7 µM
[55]
  GI50: 3.47 µM
  TGI: 12.5 µM
[56]
  GI50: 2.79 µM
  TGI: 7.84 µM
[57]
  GI50: 4.19 µM
  TGI: 17.6 µM

## COc1cc([C@@H]2c3cc4c(cc3C(O[C@@H]3O[C@@H]5CO[C@@H](c6cccs6)OC5[C@H](O)[C@H]3O)C3COC(=O)[C@@H]32)OCO4)cc(OC)c1O (some centres undefined)
[1]
  GI50: 0.0104 µM
  TGI: 0.0527 µM
[2]
  GI50: 0.171 µM
  TGI: 0.953 µM
[3]
  GI50: 0.51 µM
  TGI: 32.9 µM
[4]
  GI50: 0.0856 µM
  TGI: 1.09 µM
[5]
  GI50: 0.0256 µM
  TGI: 1.37 µM
[6]
  GI50: 0.401 µM
  TGI: 3.95 µM
[7]
  GI50: < 0.005 µM
  TGI: 0.0284 µM
[8]
  GI50: 0.00975 µM
  TGI: 16.5 µM
[9]
  GI50: 0.0209 µM
  TGI: 0.822 µM
[10]
  GI50: 0.017 µM
  TGI: 0.911 µM
[11]
  GI50: 0.248 µM
  TGI: 1.19 µM
[12]
  GI50: 0.0369 µM
  TGI: 0.396 µM
[13]
  GI50: 0.0732 µM
  TGI: 0.888 µM
[14]
  GI50: 0.0768 µM
  TGI: 1.02 µM
[15]
  GI50: 0.0278 µM
  TGI: 17 µM
[16]
  GI50: 0.241 µM
  TGI: 5.03 µM
[17]
  GI50: < 0.005 µM
  TGI: 0.0249 µM
[18]
  GI50: 0.0298 µM
  TGI: 1.28 µM
[19]
  GI50: 0.111 µM
  TGI: 19.3 µM
[20]
  GI50: 0.0283 µM
  TGI: 0.137 µM
[21]
  GI50: 0.207 µM
  TGI: 0.87 µM
[22]
  GI50: 0.118 µM
  TGI: 0.799 µM
[23]
  GI50: 0.118 µM
  TGI: 0.796 µM
[24]
  GI50: 5.22 µM
  TGI: 50 µM
[25]
  GI50: 0.0984 µM
  TGI: 0.809 µM
[26]
  GI50: 0.0721 µM
  TGI: 1.28 µM
[27]
  GI50: 0.102 µM
  TGI: 0.81 µM
[58]
  GI50: 0.0461 µM
  TGI: 1.25 µM
[28]
  GI50: 0.0603 µM
  TGI: 1.63 µM
[29]
  GI50: 0.0693 µM
  TGI: 1.54 µM
[30]
  GI50: 0.154 µM
  TGI: 2.11 µM
[31]
  GI50: 0.382 µM
  TGI: 5.3 µM
[32]
  GI50: 0.0635 µM
  TGI: 0.551 µM
[33]
  GI50: 0.123 µM
  TGI: 1.1 µM
[34]
  GI50: 0.0659 µM
  TGI: 0.491 µM
[35]
  GI50: 0.0336 µM
  TGI: 0.216 µM
[36]
  GI50: 0.261 µM
  TGI: 2.12 µM
[37]
  GI50: 0.0459 µM
  TGI: 0.369 µM
[38]
  GI50: 0.677 µM
  TGI: 14.4 µM
[39]
  GI50: 0.0269 µM
  TGI: 0.711 µM
[40]
  GI50: 0.0997 µM
  TGI: 6.98 µM
[41]
  GI50: 0.0878 µM
  TGI: 1.31 µM
[42]
  GI50: 0.0409 µM
  TGI: 1.1 µM
[43]
  GI50: 0.0223 µM
  TGI: 0.149 µM
[44]
  GI50: 0.499 µM
  TGI: 19.4 µM
[45]
  GI50: 0.0268 µM
  TGI: 0.199 µM
[46]
  GI50: < 0.005 µM
  TGI: 0.278 µM
[47]
  GI50: 0.109 µM
  TGI: 0.446 µM
[48]
  GI50: 0.267 µM
  TGI: 3.58 µM
[49]
  GI50: 0.0207 µM
  TGI: 0.434 µM
[50]
  GI50: 0.105 µM
  TGI: 0.534 µM
[51]
  GI50: 0.0224 µM
  TGI: 0.712 µM
[52]
  GI50: 0.179 µM
  TGI: 1.14 µM
[53]
  GI50: 0.228 µM
  TGI: 5.13 µM
[54]
  GI50: 0.0272 µM
  TGI: 5.68 µM
[55]
  GI50: 0.0567 µM
  TGI: 0.573 µM
[56]
  GI50: 0.00941 µM
  TGI: 0.175 µM
[57]
  GI50: 0.0288 µM
  TGI: 0.482 µM
